Test results as given in patent US20260042764A1, “COMPOSITIONS AND METHODS FOR INHIBITION OF KRAS” (TheRas, Inc., priority 2022, published 2026).

Tests used:
AsPC-1 cells (KRAS G12D) [1] = assay: Cell-based pERK HTRF assay in AsPC-1 cells (Biological Example 5); conditions: Homo sapiens, ASPC1, AsPC-1 (KRAS G12D) cells
Summary of the method: (§1)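 Cells seeded at 2.5×10^4/well in 10% FBS medium overnight, then treated 2 h at 37° C with a 9-point, three-fold compound dilution series (0.25% DMSO final). Lysates were read by HTRF for pERK1/2 (Thr202/Tyr204) after 24 h at 4° C; EC50 came from a four-parameter fit of 665/620 nm ratios.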

SW1900 cells (KRAS G12D) [2] = assay: Cell-based pERK HTRF assay in SW1900 cells (Biological Example 5); conditions: Homo sapiens, SW1990, SW1990 cells (text: SW1900, KRAS G12D)
Summary of the method: as §1

HPAC cells (KRAS G12D) [3] = assay: Cell-based pERK HTRF assay in HPAC cells (Biological Example 5); conditions: Homo sapiens, HPAC
Summary of the method: as §1

[4] = tested on: Capan-2 cells (KRAS G12V); assay: Cell-based pERK HTRF assay in Capan-2 cells (Biological Example 5); conditions: Homo sapiens, Capan-2, Capan-2 (KRAS G12V) cells
Summary of the method: as §1

RKN cells (KRAS G12V) [5] = assay: Cell-based pERK HTRF assay in RKN cells (Biological Example 5)
Summary of the method: as §1

H358 cells (KRAS G12C) [6] = assay: Cell-based pERK HTRF assay in H358 cells (Biological Example 5); conditions: Homo sapiens, NCI-H358, H358 (KRAS G12C) cells
Summary of the method: as §1

HCT116 cells (KRAS G13D) = assay: Cell-based pERK HTRF assay in HCT116 cells (Biological Example 5); conditions: Homo sapiens, HCT-116
Summary of the method: as §1

KP-2 cells (KRAS G12R) = assay: Cell-based pERK HTRF assay in KP-2 cells (Biological Example 5); conditions: KP-2 (KRAS G12R) cells
Protocol: Biological Example 5: Cell-based PERK HTRF assay in AsPC-1, SW1900, HPAC, Capan-2, RKN, H358, HCT116, KP-2, H1573, A549, MKN1, and HT1080 cells
The inhibition of ERK phosphorylation, as measured using the HTRF Advanced Phospho-ERK 1/2 (Thr202/Tyr204) Detection Assay kit (Perkin Elmer), was used to determine the effectiveness of test compounds in disrupting KRAS-driven protein/effector signaling in cells.
On day 1, cells were seeded into 96-well plates at 2.5×10^4 cells/well in 100 μL of complete growth media supplemented with 10% fetal bovine serum (FBS) and incubated at 37° C., in the presence of 5% CO2.
On day 2, cells were treated with compounds diluted in DMSO at 0.25% final DMSO concentration. Compounds were dosed in a 9-point concentration curve with three-fold dilution between concentrations. Cells were incubated in the presence of compound for two hours at 37° C. Following this treatment period, cells were harvested by aspirating the media, adding 40 μL of kit-supplied 1x lysis buffer per well, and shaking for 30 minutes at 250 rpm at room temperature.
Following cell lysis, samples were homogenized by pipetting up and down twenty times and 16 μL of cell lysate per well was transferred from the 96-well cell culture plate to two wells of a 384-well detection plate. A complete detection buffer was prepared by diluting D2 and Eu Cryptate antibodies 1:20 in kit-provided detection solution, 4 μL of complete detection buffer was then added to each well with lysate. Plates were incubated with gentle rocking for 24 hours at 4° C.
Following this incubation period, plates were centrifuged at 500×g for one minute and analyzed on a CLARIOstar plate reader. Data was imported into Microsoft Excel and the signal from the 665 nm channel was divided by the signal from the 620 nm channel. % pERK was calculated as: […]
Data was imported to the Prism software package (Graphpad) and EC50 values were calculated using the log (inhibitor) vs, response—variable slopc (Four parameters) model.

H1573 cells (KRAS G12A) = assay: Cell-based pERK HTRF assay in H1573 cells (Biological Example 5); conditions: Homo sapiens, NCI-H1573
Summary of the method: as §1

[7] = tested on: MKN1 cells (KRAS amplification); assay: Cell-based pERK HTRF assay in MKN1 cells (Biological Example 5); conditions: Homo sapiens, MKN-1, MKN cells (MKN1, KRAS amplification)
Summary of the method: as §1

HT1080 cells (NRAS) = assay: Cell-based pERK HTRF assay in HT1080 cells (Biological Example 5); conditions: Homo sapiens, HT-1080
Summary of the method: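 Cells seeded at 2.5×10^4/well in 10% FBS medium overnight, then treated 2 h at 37 °C with a 9-point, 3-fold compound series (0.25% DMSO). Lysates read by HTRF for pERK1/2 (Thr202/Tyr204), 665/620 nm ratio; EC50 from four-parameter fit.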

AsPC-1 cells (KRAS G12D) [8] = assay: 3D Cell viability assay in AsPC-1 cells (Biological Example 6); type: cell-based; conditions: Homo sapiens, ASPC1; AsPC-1 (KRAS G12D) spheroids, 72 hours
Summary of the method: (§2)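 EC50 values come from a four-parameter variable-slope fit of CellTiter-Glo 3D luminescence in spheroid cultures treated 72 h with a nine-point, three-fold dilution series.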

SW1900 cells (KRAS G12D) [9] = assay: 3D Cell viability assay in SW1900 cells (Biological Example 6); type: cell-based; conditions: Homo sapiens; SW1990 (text: SW1900, KRAS G12D) spheroids, 72 hours
Summary of the method: as §2

HPAC cells (KRAS G12D) [10] = assay: 3D Cell viability assay in HPAC cells (Biological Example 6); type: cell-based; conditions: Homo sapiens, HPAC, 72 h, HPAC (KRAS G12D) spheroids
Summary of the method: as §2

[11] = tested on: Capan-2 cells (KRAS G12V); assay: 3D Cell viability assay in Capan-2 cells (Biological Example 6); type: cell-based; conditions: Homo sapiens; Capan-2 (KRAS G12V) spheroids, 72 hours
Summary of the method: as §2

RKN cells (KRAS G12V) [12] = assay: 3D Cell viability assay in RKN cells (Biological Example 6); type: cell-based; conditions: RKN (KRAS G12V) spheroids, 72 hours
Summary of the method: as §2

H358 cells (KRAS G12C) [13] = assay: 3D Cell viability assay in H358 cells (Biological Example 6); type: cell-based; conditions: Homo sapiens, NCI-H358; H358 (KRAS G12C) spheroids, 72 hours
Summary of the method: as §2

[14] = tested on: MKN1 cells (KRAS amplification); assay: 3D Cell viability assay in MKN1 cells (Biological Example 6); type: cell-based; conditions: Homo sapiens, MKN-1; MKN (MKN1, KRAS amplification) spheroids, 72 hours
Summary of the method: as §2

| Compound | IC50 (AsPC-1 cells (KRAS G12D) [1]) | IC50 (SW1900 cells (KRAS G12D) [2]) | IC50 (HPAC cells (KRAS G12D) [3]) | IC50 [4] | IC50 (RKN cells (KRAS G12V) [5]) | IC50 (H358 cells (KRAS G12C) [6]) | IC50 (HCT116 cells (KRAS G13D)) | IC50 (KP-2 cells (KRAS G12R)) | IC50 (H1573 cells (KRAS G12A)) | IC50 [7] | IC50 (HT1080 cells (NRAS)) | IC50 (AsPC-1 cells (KRAS G12D) [8]) | IC50 (SW1900 cells (KRAS G12D) [9]) | IC50 (H358 cells (KRAS G12C) [13]) | IC50 [14] | IC50 (HPAC cells (KRAS G12D) [10]) | IC50 [11] | IC50 (RKN cells (KRAS G12V) [12]) |
| --- | --- | --- | --- | --- | --- | --- | --- | --- | --- | --- | --- | --- | --- | --- | --- | --- | --- | --- |
| CCN(c1nc(OC[C@@]23CCCN2C[C@H](F)C3)nc2c(F)c(-c3ccc(F)c4sc(N)c(C#N)c34)c(C(F)(F)F)cc12)[C@H]1CCN(C(=O)N(C)C)C1 (atropisomer, axis not shown) [Compound 540, (3S)-3-[[7-(2-amino-3-cyano-7-fluoro-benzothiophen-4-yl)-8-fluoro-2-[[(2R,8S)-2-fluoro-1,2,3,5,6,7-hexahydropyrrolizin-8-yl]methoxy]-6-(trifluoromethyl)quinazolin-4-yl]-ethyl-amino]-N,N-dimethyl-pyrrolidine-1-carboxamide] | 100 to 1000 nM | ≤ 100 nM | ≤ 100 nM | ≤ 100 nM | – | ≤ 100 nM | ≤ 100 nM | ≤ 100 nM | ≤ 100 nM | ≤ 100 nM | > 1000 nM | 100 to 1000 nM | ≤ 100 nM | ≤ 100 nM | ≤ 100 nM | 100 to 1000 nM | ≤ 100 nM | – |
| CCN(c1nc(OC[C@@]23CCCN2C[C@H](F)C3)nc2c(F)c(-c3ccc(F)c4sc(N)c(C#N)c34)c(C(F)(F)F)cc12)[C@@H]1CCN(C(=O)C2CC2)[C@@H]1C (atropisomer, axis not shown) [Compound 524] | 100 to 1000 nM | ≤ 100 nM | ≤ 100 nM | ≤ 100 nM | – | ≤ 100 nM | ≤ 100 nM | ≤ 100 nM | ≤ 100 nM | ≤ 100 nM | > 1000 nM | 100 to 1000 nM | ≤ 100 nM | ≤ 100 nM | ≤ 100 nM | > 1000 nM | ≤ 100 nM | – |
| CCN(c1nc(OC[C@@]23CCCN2C[C@H](F)C3)nc2c(F)c(-c3ccc(F)c4sc(N)c(C#N)c34)c(C(F)(F)F)cc12)[C@H]1CCN(C(=O)OC)C1 (atropisomer, axis not shown) [Compound 541, methyl(3S)-3-[[7-(2-amino-3-cyano-7-fluoro-benzothiophen-4-yl)-8-fluoro-2-[[(2R,8S)-2-fluoro-1,2,3,5,6,7-hexahydropyrrolizin-8-yl]methoxy]-6-(trifluoromethyl)quinazolin-4-yl]-ethyl-amino]pyrrolidine-1-carboxylate] | ≤ 100 nM | ≤ 100 nM | ≤ 100 nM | ≤ 100 nM | ≤ 100 nM | ≤ 100 nM | ≤ 100 nM | 100 to 1000 nM | ≤ 100 nM | ≤ 100 nM | > 1000 nM | ≤ 100 nM | ≤ 100 nM | ≤ 100 nM | ≤ 100 nM | ≤ 100 nM | ≤ 100 nM | ≤ 100 nM |

More lines, main results first:

| IC50 (AsPC-1 cells (KRAS G12D) [1]) | IC50 (SW1900 cells (KRAS G12D) [2]) | IC50 (HPAC cells (KRAS G12D) [3]) | IC50 [4] | IC50 (RKN cells (KRAS G12V) [5]) | IC50 (H358 cells (KRAS G12C) [6]) | IC50 (HCT116 cells (KRAS G13D)) | IC50 (KP-2 cells (KRAS G12R)) | IC50 (H1573 cells (KRAS G12A)) | IC50 [7] | IC50 (HT1080 cells (NRAS)) | IC50 (AsPC-1 cells (KRAS G12D) [8]) | IC50 (SW1900 cells (KRAS G12D) [9]) | IC50 (H358 cells (KRAS G12C) [13]) | IC50 [14] | Compound | IC50 (HPAC cells (KRAS G12D) [10]) | IC50 [11] | IC50 (RKN cells (KRAS G12V) [12]) |
| --- | --- | --- | --- | --- | --- | --- | --- | --- | --- | --- | --- | --- | --- | --- | --- | --- | --- | --- |
| ≤ 100 nM | ≤ 100 nM | 100 to 1000 nM | ≤ 100 nM | ≤ 100 nM | ≤ 100 nM | ≤ 100 nM | 100 to 1000 nM | ≤ 100 nM | ≤ 100 nM | > 1000 nM | ≤ 100 nM | ≤ 100 nM | ≤ 100 nM | ≤ 100 nM | CCN(c1nc(OC[C@@]23CCCN2C[C@H](F)C3)nc2c(F)c(-c3ccc(F)c4sc(N)c(C#N)c34)c(C(F)(F)F)cc12)[C@H]1CCN(C(=O)C(C)C)C1 (single isomer, unassigned) [Compound 469] | ≤ 100 nM | ≤ 100 nM | ≤ 100 nM |
| ≤ 100 nM | ≤ 100 nM | ≤ 100 nM | ≤ 100 nM | ≤ 100 nM | ≤ 100 nM | 100 to 1000 nM | 100 to 1000 nM | 100 to 1000 nM | ≤ 100 nM | – | ≤ 100 nM | ≤ 100 nM | ≤ 100 nM | ≤ 100 nM | Cc1c(C(=O)N(C)C)nn2c1CN(c1nc(OC[C@@]34CCCN3C[C@H](F)C4)nc3c(F)c(-c4ccc(F)c5sc(N)c(C#N)c45)c(C(F)(F)F)cc13)CC2 [Compound 501] | 100 to 1000 nM | ≤ 100 nM | ≤ 100 nM |
